Laboratory results reported in US20050152847A1, “Novel formulation” (priority 2002, published 2005).
Structures can show the parent of a compound that is named as a salt.

Experiments:
[1] = iso-osmotic with serum/saline; cited from earlier work
stable asthma patients = details: fifteen stable asthma patients; lactose dry powder alone; no dosage data given; cited from earlier work
[2] = generally regarded; cited from earlier work
[3] = cited from earlier work
[4] = cited from earlier work; remark: listed apart in the source
[5] = Concentration of aqueous solution iso-osmotic with serum/saline; format: physicochemical; details: expected from number of molecules, not measured
Description: We preferably select an excipient with a concentration of at least >5.5%, preferably >7%—compounds that could be regarded as weak osmolytic or non-osmolytic active compounds—teaching away from WO 00/36915. The selected concentration values are based upon the clinical results presented for lactose and mannitol. The physiological condition is pH 7.4 and 276 mOsm.
The osmotic pressure is proportional to the concentration of the solute for nonelectrolytes. The osmotic pressures of solutions of different nonelectrolytes are proportional to the number of molecules in each solution. This means—when having the same amount in grams—a disaccharide will have about half the osmotic pressure as a monosaccharide, which could also be seen in table 1. This type of generalisations could not be used for electrolytes. All disaccharides (e.g. trehalose) would be expected to have an osmotic pressure corresponding to a solution of at least >7% and trisaccharides (e.g. melezitose, raffinose) needed higher concentration in order to be iso-osmotic with a saline solution. The carbohydrate myo-inositol would be expected to have a concentration of less than 5% for iso-osmolytic activity with saline.

In the case of O=C1O[C@H]([C@@H](O)CO)C(O)=C1O [Ascorbic acid], the “Concentration of aqueous solution iso-osmotic with serum (%)” value (shortened to “Concentration … (%)”) [1] is listed as 5.9%.

In the case of O=C(CO)[C@@H](O)[C@H](O)[C@H](O)CO [Fructose], the “Concentration … (%)” value [1] is listed as 5.1%.

For O=C[C@H](O)[C@@H](O)[C@@H](O)[C@H](O)CO [Galactose], the “Concentration … (%)” value [1] is listed as 4.9%.

For OC[C@@H](O)[C@@H](O[C@@H]1O[C@H](CO)[C@H](O)[C@H](O)[C@H]1O)[C@H](O)[C@@H](O)CO [Lactitol], the “Concentration … (%)” value [1] is given as 7%.

For OC[C@H]1O[C@@H](O[C@H]2[C@H](O)[C@@H](O)C(O)O[C@@H]2CO)[C@H](O)[C@@H](O)[C@H]1O (stereo partly drawn) [Lactose], the “Concentration … (%)” value [1] is given as 9.8% and the “Bronchoconstriction after inhalation of dry powder” value (stable asthma patients) is given as “caused bronchoconstriction”.

For CCN(CC)CC(=O)Nc1c(C)cccc1C [Lidocaine-HCl, reference compound], the “Concentration … (%)” value [1] is listed as 4.4%.

In the case of OC[C@@H](O)[C@@H](O[C@H]1O[C@H](CO)[C@@H](O)[C@H](O)[C@H]1O)[C@H](O)[C@@H](O)CO [Maltitol], the “Concentration … (%)” value [1] is given as 10%, the “Toxicity, allergenicity, irritancy” value [2] is given as “nontoxic, nonallergenic and nonirritant” and the “Stability of water solution” value ([3]; pH 4-9 even at higher temperatures) is given as “very stable”. The “Stability of water solution (time stable)” value ([3]; room temperature and pH 2-9) was “at least 2 years” and the “Relative humidity at which moisture is absorbed” value ([4]; 20° C.) was ≥ 89%.

In the case of OC[C@@H](O)[C@@H](O)[C@H](O)[C@H](O)CO [Mannitol], the “Concentration … (%)” value [1] is listed as 5.1%.

For Cc1cc(C(C)(C)C)c(O)c(C)c1CC1=NCCN1.Cl [Oxymethazoline-HCl, reference compound], the “Concentration … (%)” value [1] is listed as 4.9%.

For O=C1O[C@H]([C@@H](O)CO)C([O-])=C1O.[Na+] [Sodium ascorbate], the “Concentration … (%)” value [1] is given as 3.0%.

In the case of [Cl-].[Na+] [Sodium chloride], the “Concentration … (%)” value [1] is given as 0.9%.

In the case of OC[C@@H](O)[C@@H](O)[C@H](O)[C@@H](O)CO [Sorbitol], the “Concentration … (%)” value [1] is listed as 5.5%.

For OC[C@H]1O[C@@](CO)(O[C@H]2O[C@H](CO)[C@@H](O)[C@H](O)[C@H]2O)[C@@H](O)[C@@H]1O [Sucrose], the “Concentration … (%)” value [1] is given as 9.3% and the Moisture sensitivity ([4]; submitted to humidity) is given as “very moisture sensitive”.

In the case of OC[C@@H](O)[C@H](O)[C@@H](O)CO [Xylitol], the “Concentration … (%)” value [1] is listed as 4.6%.

In the case of O[C@H]1[C@H](O)[C@@H](O)[C@H](O)[C@@H](O)[C@H]1O [myo-inositol], the “Expected concentration of solution iso-osmotic with saline” value [5] is reported as “less than 5%”.
